test: gradient 5% acetonitrile 3 min, to 50% in 2 min, to 85% in 15 min, held 3 min, 100 µL/min; details: column: Zorbax Extend-C18 2.1 x 50 mm; eluents: water / acetonitrile, 0.1% formic acid
In short: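 Using water and acetonitrile that each contained 0.1% formic acid, mixtures of ~100 pure standards were separated at 100 μL/min on a Zorbax Extend-C18 column (2.1 × 50 mm, 1.8 μm). The HPLC fed a quadrupole time-of-flight mass spectrometer working in positive and negative ionization mode, with dead and dwell volumes of 40 μL and 900 μL. Data were acquired over 3 months. Retention time was read from computationally picked adduct peaks after manual inspection of each.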

Point of comparison: `COC(=O)c1ccccc1Nc1c(-c2ccc(Br)cc2)nc2cnccn12`, RP-LC retention time 1130 s. Against it:
- CN(C)C(=O)CSc1nnc(-c2ccc3c(c2)OCCCO3)n1C1CC1 — lower, 676 s
- O=C(CCc1nc2cccnc2n1-c1ccccc1)NCCc1c[nH]c2ccccc12 — lower, 706 s
- COc1ccccc1CNC(=O)[C@@H]1[C@H](c2cc(OC)c(OC)c(OC)c2)c2cc3c(cc2[C@H](O)[C@H]1CO)OCO3 — lower, 713 s
- Cc1c(CNCC2CCCO2)c(C(=O)O)c(C)n1Cc1cccc(Cl)c1 (stereo not given) — lower, 717 s
- COC(=O)c1ccc(Cl)cc1NC(=O)N1CCN(Cc2nc3cc(Cl)ccc3o2)CC1 — higher, 1150 s
- CCN1C(=O)CCc2cc(NS(=O)(=O)c3cccc(Br)c3)ccc21 — lower, 833 s
- CC(C)n1c(=O)c2ccccc2n(Cc2nc(-c3cccc(Br)c3)no2)c1=O — higher, 1250 s
- Cc1cc(Nc2ccc(NC(=O)c3cnccn3)cc2)nc(N2CCCCC2)n1 — lower, 588 s
- O=C(Cn1ccn2nc(-c3ccc(F)cc3)c(CO)c2c1=O)N1CCCC1 — lower, 683 s
- CCCNC(=O)N(C1CCOCC1)C1CCN(C(=O)c2ccc(C)s2)CC1 — lower, 747 s
- COc1ccc(-c2cc(C(F)(F)F)n3ncc(C(=O)O)c3n2)cc1OC — lower, 777 s
- CCN1CCC(N(Cc2cccs2)C(=O)Nc2ccccc2Br)CC1 — lower, 679 s
- COc1ccc(Cl)cc1NC(=O)CN1C(=O)NC2(CCCCC2)C1=O — lower, 831 s
- O=C(CCC1CCCN(S(=O)(=O)c2ccccc2F)C1)NCc1cc(F)ccc1F (stereo not given) — lower, 966 s
- Fc1ccc(C2Cn3nnc(-c4nc(-c5ccccc5)no4)c3CO2)cc1 (stereo not given) — lower, 1120 s
- Cc1ccc(C(O)CN2CCN(c3ccccn3)CC2)cc1 (stereo not given) — lower, 550 s
- COc1cc(CNC(=O)C2CC(=O)N(c3ccc4oc(C)nc4c3)C2)cc(OC)c1 (stereo not given) — lower, 687 s
- O=C(CSc1nnc(NC(=O)C2CC2)s1)NCc1ccc(F)cc1 — lower, 674 s
- COc1ccc(OC)c(NC(=O)CSc2nccc(N3CCN(c4cc(C)ccc4C)CC3)n2)c1 — lower, 1010 s
- CC(NC(=O)c1ccccc1)c1nc(-c2ccc3oc(-c4ccccc4)nc3c2)no1 (stereo not given) — lower, 1090 s
- Cc1ccc2c(Nc3cccc(C(C)C)c3)c(C(=O)N3CCCCC3C)cnc2n1 (stereo not given) — lower, 720 s
- C=CCn1nc(C)c(-c2cc(C(=O)O)[nH]n2)c1C — lower, 605 s
- Cn1cnc2cc(-c3noc(CNC(=O)c4ccccc4)n3)ccc21 — lower, 614 s
- Cc1cc(=O)n(CC(=O)Nc2ccccc2Cl)c(N2CCCCC2)n1 — lower, 718 s
- Cc1ccc(NC(=O)C2CC(=O)N(c3n[nH]c4cccc(F)c34)C2)nc1 (stereo not given) — lower, 606 s
- Cc1ncc2c(n1)C[C@@H]1CC[C@H]2N1C(=O)NCc1ccccc1 — lower, 642 s
- CCOc1ccc(-c2nc(Cc3noc(-c4ccc(C#N)cc4)n3)c(C)o2)cc1 — higher, 1160 s
- CC1CCN(C(=O)CN2C(=O)CCCc3cc(S(=O)(=O)N4CCCCCC4)ccc32)CC1 — lower, 956 s
- Cn1ncc2c(N3CCCC3)nc(C(=O)NCc3ccc(Cl)cc3)nc21 — lower, 858 s
- COc1ccccc1C(=O)Nc1ccc2c(c1)Sc1ncccc1C(=O)N2C — lower, 810 s
- CCc1noc(NC(C)=O)c1-c1ccc(OC)c(S(=O)(=O)Nc2ccc(F)cc2Cl)c1 — lower, 841 s
- CC(C)CN1CCn2cc(S(=O)(=O)NCc3cccc(F)c3)cc2C1=O — lower, 813 s
- Cc1c(Cl)cccc1NC(=O)N1CCc2nc[nH]c2C1 — lower, 592 s
- CCCCC(=O)Nc1cc(C(=O)O)ccc1N(C)CCc1c(C)nn(C)c1C — lower, 596 s
- CCCCOc1ccc(NC(=O)N(Cc2ccccn2)Cc2ccco2)cc1 — lower, 788 s
- c1ccc(-c2noc(-c3ccc(OC4CNC4)cc3)n2)cc1 — lower, 674 s
- Cc1ccc(Cn2c(N3CCCC(C(=O)NCCC4=CCCCC4)C3)nc3ccsc3c2=O)cc1 (stereo not given) — higher, 1150 s
- O=C1CC(NC(=O)COc2ccc(F)cc2)CN1 (stereo not given) — lower, 586 s
- Cc1oc(C2CCN(C(=O)Cc3c(F)cccc3Cl)CC2)nc1C(=O)N1CCCCC1 — lower, 886 s
- CN(NC(=O)CC(=O)NN(C)C(=S)c1ccccc1)C(=S)c1ccccc1 — lower, 862 s
- O=C(c1cnccn1)N1CCN(c2nc(-c3ccc(Cl)cc3)no2)CC1 — lower, 828 s
- CCOC(=O)c1c(C)[nH]c(C)c1S(=O)(=O)N1CCC(C(=O)NCCc2sccc2C)CC1 — lower, 794 s
- COc1cccc(CNC(=O)CCc2nc3c(C)cccc3c(=O)n2C)c1OC — lower, 791 s
- COCCCNC(=O)NC(C(=O)N1CCc2ccccc21)c1ccccc1 (stereo not given) — lower, 798 s
- O=S(=O)(Nc1ccc(F)cc1)c1cccnc1Nc1ccc(F)cc1 — lower, 1060 s
- CCNC(=O)CC1=C2CCCCC2NC1=O (stereo not given) — lower, 592 s
- CCCc1noc(-c2ccc(-n3cnc(C(=O)N4CCCC4)c3)nc2)n1 — lower, 816 s
- COc1ccc(OC)c(NS(=O)(=O)c2cc(-c3cc(C(F)(F)F)on3)sc2C)c1 — the same, 1130 s
- Cc1ccc2nc(Cl)c3cc(C(=O)N4CCN(c5ccccn5)CC4)sc3c2c1 — lower, 719 s
- CCCc1ccc(S(=O)(=O)N2CCC3(CCC(CN4CCN(C)CC4)O3)CC2)cc1 (stereo not given) — lower, 654 s
- CCNC(=O)c1cc(N(C)C)nc2c(Cl)cccc12 — lower, 730 s
- COc1ccc(-n2c(=O)c3sccc3n(Cc3nc(-c4ccc(F)c(Cl)c4)no3)c2=O)cc1 — lower, 1040 s
- CC1CCN(S(=O)(=O)c2nn(C)cc2C(=O)NCC(C)c2ccccc2)CC1 (stereo not given) — lower, 1030 s
- CN(C)c1cc(C(N)=O)c2cccc(Cl)c2n1 — lower, 638 s
- O=C(NCc1ccccc1)C1CCN(S(=O)(=O)c2cc(C(=O)N3CCCCCC3)cs2)CC1 — lower, 866 s
- Cc1cc(C)cc(NC(=O)N2CCC(n3cnc4cc(F)ccc4c3=O)CC2)c1 — lower, 846 s
- COCCNC(=O)C(=O)NCC1(c2ccc(F)cc2)CCOCC1 — lower, 676 s
- Cc1noc(C)c1CCC(=O)N1CCN(c2c(C)nn(C3CCS(=O)(=O)C3)c2C)CC1 (stereo not given) — lower, 650 s
- COc1ccc(Cn2c(=O)n(C)c3ncncc32)cc1F — lower, 683 s
- CCC(C)Nc1nc(-c2ccc(OC)cc2)nc2ccccc12 (stereo not given) — lower, 800 s
- Cn1c(=O)c2cc(C(=O)N3CCN(c4ccc(F)cc4)CC3)sc2n(C)c1=O — lower, 796 s
- COc1cccc(OCC(O)CN2CCN(c3ccccc3)CC2)c1 (stereo not given) — lower, 727 s
- CN1CCCn2cc(S(=O)(=O)Nc3cc(F)cc(F)c3)cc2C1=O — lower, 718 s
- O=C(c1csc(N2CCCC2)n1)N1CCCC1 — lower, 657 s
- Cc1nc(Cn2cccc2C(=O)NC2CCCCCCC2)no1 — lower, 954 s
- COc1ccc(Cl)cc1NC(=O)NCC(c1cccnc1)c1c[nH]c2ccccc12 (stereo not given) — lower, 728 s
- CCOc1ccccc1-c1noc(-c2nnn3c2COC(c2ccc(OC)cc2)C3)n1 (stereo not given) — lower, 1080 s
- COC(=O)c1c(NCc2ccccc2C)c2cccc(Cl)c2[nH]c1=O — lower, 859 s
- Cc1noc(-c2ccc(=O)n(CC(=O)Nc3ccccc3)c2)n1 — lower, 667 s
- Cc1c(-c2ccccc2)nc2ccccc2c1C(=O)N1CCN(c2ncccn2)CC1 — lower, 636 s
- CCn1cc(CN2CCCCC2c2nncn2Cc2ccccc2)cn1 (stereo not given) — lower, 575 s
- CC(C)C(=O)Nc1ccc(C2(C(=O)Nc3ccc(N4CCOCC4)cc3)CCCCC2)cc1 — lower, 888 s
- O=C(c1cncc(Br)c1)N1CCN(c2ccc(-c3ccco3)nn2)CC1 — lower, 603 s
- O=C1CC(C(F)(F)F)c2c(c(C(=O)O)cn2-c2ccccc2Cl)N1 (stereo not given) — lower, 737 s
- CN(C)c1ccc(/C=C/C(=O)c2cc(Cl)ccc2O)cc1 — lower, 1120 s
- CCOc1ccc(-n2ccn3cc(-c4ccc(C)c(C)c4)nc3c2=O)cc1 — lower, 938 s
- CCOc1ccc(C2Cn3nnc(-c4nc(C)no4)c3CO2)cc1 (stereo not given) — lower, 917 s
- COC(=O)c1cccc(-c2nc(-c3nnn(Cc4ccccc4)c3C)no2)c1 — lower, 1010 s
- COc1cc(NC(=O)N2CCC3(CC2)NC(=O)c2ccccc2O3)cc(OC)c1OC — lower, 685 s
- Cc1cc(C2CCCN2C(=O)c2cc(-c3ccccc3F)no2)no1 (stereo not given) — lower, 885 s
- Fc1cccc(Cc2noc(-c3nc(-c4ccccc4F)no3)n2)c1 — the same, 1130 s
- CC(C)CNC(=O)C1CCCN(c2nc3ccsc3c(=O)n2Cc2ccc(F)cc2)C1 (stereo not given) — lower, 912 s
- CCCN1CCN(C(=O)C(C)C2CCN(S(=O)(=O)c3ccc(Br)s3)CC2)CC1 (stereo not given) — lower, 689 s
- CCOc1ccccc1N1CCN(Cc2nc3nc(C)cc(N4CCCC4)n3n2)CC1 — lower, 627 s
- COc1ccc(Cl)cc1NC(=O)NCCN1CCN(S(C)(=O)=O)CC1 — lower, 564 s
- COCc1ncc(C)n1CC1CCN(S(=O)(=O)c2cccc3nsnc23)CC1 — lower, 641 s
- CCCn1cc(CCNC(=O)c2ccccc2Br)c2cccnc21 — lower, 748 s
- COc1ccc(-c2c(C)noc2NC(C)=O)cc1S(=O)(=O)Nc1ccc(C)cc1C — lower, 804 s
- CCCn1c(C)cnc1C1CN(C(=O)C(C)C)C1 — lower, 553 s

Reference: the METLIN SMRT retention time set (Domingo-Almenara et al. 2019)
